In EP2345639A1, “Cyclic hydroxylamine derivatives, their preparation and use as antioxidants” (ABIOGEN PHARMA S.p.A., priority 2009, dated 2011):
Read-outs that look alike come from different tables or passages of the source.

Columns and labels:
[1] = Acid dissociation constants (pKa) by titration; format: physicochemical; settings: pH at semi-neutralization point of titration with 0.1 N NaOH or HCl
Procedure: The following equipment was used during the implementation of all the examples: • for melting point determination a Buchi B-540 instrument was used; • the pKa is the pH at the semi-neutralization point of titration using a Mettler Toledo DL-50 instrument with a 0.1 N NaOH or HC! solution; • the ^1H-NMR spectra were recorded at 300 MHz and the ^13C-NMR spectra were recorded at 75 MHz using a Varian Unity 300 instrument; • spectrophotometric measurements were carried out using a Lambda Perkin Elmer 15 UV/Vis spectrophotometer for the DPPH assay and a Wallac Victor 1420 multilabel counter spectrophotometer.

healthy animals = test: Effect of the compounds on healthy animals (same in vivo assay, cerebral oxidative parameters); set-up: species or system mice; settings: for Average % variation with respect to the vehicle / Prot. Hmg: healthy mice; for Average % variation with respect to the vehicle: 50 mg/kg IP for three consecutive days, mean over all parameters, D = doxorubicin alone; for Average % variation with respect to the vehicle / Brain/BWi / CAT/pr / GPX/pr / GSH/pr / GST/pr / Prot. Ox/pr / SOD/pr: 50 mg/kg; for Prot. Hmg: 50 mg/kg IP x3 days, percentage change relative to the vehicle; for Brain/BWi / CAT/pr / GPX/pr / GSH/pr / GST/pr / Prot. Ox/pr / SOD/pr: mouse, in vivo, ip
Procedure: (§1) 10 mice were used for each treatment group. For each compound 50 mg/kg were administered intraperitoneally (IP) for three consecutive days (day 0, 1 and 2); half the animals (5) also received IP 16.7 mg/kg of doxorubicin immediately after the first treatment (day 0). On the day after the last administration (day 3) the animals were killed by neck dislocation and the brains were removed, weighed and frozen in liquid nitrogen.
(§2) For the analyses of oxidative stress, 100 mg/ml of brain homogenate was prepared in HEB^(*) buffer (pH 7.4 EDTA/HEPES^(**)) containing a mixture of enzyme inhibitors (Leupeptin, Pepstatin, Aprotinin, BHA).
(§3) The evaluation parameters were: • BrW/BWi: ratio between final brain weight and initial body weight (day 0); • Prot. Hmg: total proteins in the homogenate (BCA method, i.e. bicinchoninic acid); • Prot. Ox: oxidized proteins in the Hmg by means of a colorimetric method using dinitrophenylhydrazone (DNPH); • GSH: reduced glutathione in the supernatant (sn) of the Hmg, obtained after precipitation with metaphosphoric acid (MPA), by means of a colorimetric method using dithiodinitrobenzene (DTNB); • CAT: catalase in the Hmg by a colorimetric method using potassium dichromate; • SOD: superoxide dismutase by a colorimetric method using SOD Reagent (xanthine, EDTA, nitroblue tetrazole, Na2CO3, BSA, i.e. bovine serum albumin); • GST: glutathione S-transferase in the supernatant by a colorimetric method using chlorodinitrobenzene (CDNB) and GSH; and • GPx: glutathione peroxidase in the supernatant after addition of GSH and t-BuOOH, heating and precipitation with MPA; followed by GSH method with DTNB. The assay was performed on the compounds (1)-(5) and (7)-(11) and on edaravone (E), as comparative compound.
The mean % effect, on all the parameters simultaneously, of the triple treatment in healthy animal, as mean percentage change relative to the vehicle. This value is useful as an approximate safety index of the oxidative state of the brain, i.e. the capacity of the compounds of the invention not to alter cerebral homeostasis in healthy animals.

[2] = tested on: doxorubicin-induced cerebral oxidative stress in mice; test: In vivo assay of cerebral oxidative stress induced in mice by doxorubicin (model and oxidized animals); settings: for inhibition in vivo at 50 mg/kg / change in vivo at 50 mg/kg: Mus musculus; for inhibition in vivo at 50 mg/kg: overall, read-out: inhibition of the doxorubicin effect; for change in vivo at 50 mg/kg / mean % effect relative to doxorubicin alone, all parameters (Vehicle): oxidized mice; for mean % effect relative to doxorubicin alone, all parameters (Vehicle): computed as a function of the vehicle
Procedure: The assay was carried out on compounds (1)-(5) and (7)-(11) and on edaravone (E) as comparative compound.
as §1, §2, §3
The mean effect (n=5 experiments) of doxorubicin (D), i.e. "oxidized" animal, relative to the vehicle (V), the vehicle representing the healthy animal.
All the parameters, with the exclusion of Brain/BWi and Prot. Hmg, were normalized for total Hmg proteins. The D value standard deviations and the % incidence relative to V are given in italics.
The effect of the tested compounds on the "oxidized" animals was given as % inhibition relative to the percentage change due to doxorubicin alone. The effect of the compounds on the oxidized animals can be expressed both as a function of the values of the vehicle (healthy, vehicle only) and as a function of the value of its own (healthy, compound only): • Vehicle: percentage [(Compound+D)/V]x100/[(V+D)/V]x100 • Its own: percentage [(Compound+D)/Compound]x100/[(V+D)/V]x100
Again in this case, the mean % effect relative to doxorubicin alone could be given for all the parameters simultaneously, as an approximate index of effectiveness on the cerebral oxidative state of the animal.

[3] = Brain-to-plasma concentration ratio in mice; format: in vivo, Female CD-1 mice; settings: female, CD-1, mouse, ip, 25 mg/kg intraperitoneal, area under the curve of brain and plasma concentrations 0 to 60 minutes, read-out: B/P ratio
Procedure: The ability of the compounds of the invention to penetrate the brain was investigated by measuring their brain/plasma (B/P) ratio in mice following intraperitoneal administration.
Female CD-1 mice were used (n=3 for each time period) and received the compounds of the invention by intraperitoneal administration, in 25 mg/kg doses in a 0.5% NaHCO3 buffer (pH 8.3). At predefined intervals following said administration, i.e. 5, 15, 30 and 60 minutes, the mice were killed and both plasma and total brain tissue were collected.
Specifically, after anaesthesia with ether, the animals were bled by blood withdrawal from the abdominal aorta then immediately decapitated. The blood samples were collected into plasma separator tubes containing Li-Heparin as anticoagulant and centrifuged. The resulting plasma was then stored at -20 °C. The brain was rapidly removed from the cranium and weighed, subsequently frozen and stored at -20 °C before treatment by homogenization and HPLC analysis.
The plasma was thawed and mixed with an equal volume of the extraction solution.
1 ml of solution was then extracted by adding 20 µl of 70% HClO4, then centrifuged at 15,500g for 5 minutes and injected into the HPLC.
Each brain was thawed and homogenized with the extraction solution to provide a final composition of 4 ml/1g of tissue by means of an Ultra-Turrax blender and sonicated for 5 minutes. After centrifugation of the homogenate at 15,500g for 5 minutes, the resulting solution was treated with HClO4, as indicated for the plasma. Specific chromatographic conditions had been developed for each analyte, the calibration curve being constructed for plasma and brain homogenate.

[4] = ip, compared with its own vehicle
[5] = ip, with respect to the vehicle
[6] = ip, % inhibition relative to change due to doxorubicin alone, vs its own, read-out: Brain/BWi its own
[7] = ip, % inhibition relative to change due to doxorubicin alone, vs its own, read-out: CAT/pr its own
[8] = ip, % inhibition relative to change due to doxorubicin alone, vs its own, read-out: GPX/pr its own
[9] = ip, % inhibition relative to change due to doxorubicin alone, vs its own, read-out: GSH/pr its own
[10] = ip, % inhibition relative to change due to doxorubicin alone, vs its own, read-out: GST/pr its own
[11] = ip, % inhibition relative to change due to doxorubicin alone, vs its own, read-out: Prot. Hmg its own
[12] = ip, % inhibition relative to change due to doxorubicin alone, vs its own, read-out: Prot. Ox/pr its own
[13] = ip, % inhibition relative to change due to doxorubicin alone, vs its own, read-out: SOD/pr its own
[14] = ip, % inhibition relative to change due to doxorubicin alone, vs vehicle, read-out: Brain/BWi vehicle
[15] = ip, % inhibition relative to change due to doxorubicin alone, vs vehicle, read-out: CAT/pr vehicle
[16] = ip, % inhibition relative to change due to doxorubicin alone, vs vehicle, read-out: GPX/pr vehicle
[17] = ip, % inhibition relative to change due to doxorubicin alone, vs vehicle, read-out: GSH/pr vehicle
[18] = ip, % inhibition relative to change due to doxorubicin alone, vs vehicle, read-out: GST/pr vehicle
[19] = ip, % inhibition relative to change due to doxorubicin alone, vs vehicle, read-out: Prot. Hmg vehicle
[20] = ip, % inhibition relative to change due to doxorubicin alone, vs vehicle, read-out: Prot. Ox/pr vehicle
[21] = ip, % inhibition relative to change due to doxorubicin alone, vs vehicle, read-out: SOD/pr vehicle
[22] = 50 mg/kg IP x3 days + doxorubicin, computed as a function of its own (healthy, compound only), read-out: mean % effect relative to doxorubicin alone, all parameters (Its own)
[23] = 50 mg/kg IP x3 days + doxorubicin

SMILES	pKa1 [1]	pKa2 [1]	Average % variation with respect to the vehicle (healthy animals)	Prot. Hmg (healthy animals)	Brain/BWi (healthy animals)	CAT/pr (healthy animals)	GPX/pr (healthy animals)	GSH/pr (healthy animals)	GST/pr (healthy animals)	Prot. Ox/pr (healthy animals)	SOD/pr (healthy animals)	inhibition in vivo at 50 mg/kg [2, 4]	change in vivo at 50 mg/kg [2, 6]	change in vivo at 50 mg/kg [2, 7]	change in vivo at 50 mg/kg [2, 8]	change in vivo at 50 mg/kg [2, 9]	change in vivo at 50 mg/kg [2, 10]	change in vivo at 50 mg/kg [2, 11]	change in vivo at 50 mg/kg [2, 12]	change in vivo at 50 mg/kg [2, 13]	further results
O=c1oc2ccccc2c(O)c1C1COCCN1O (stereo not shown) [(10), 4-hydroxy-3-(4-hydroxymorpholin-3-yl)-2H-chromen-2-one]	2.70	6.14	did not significantly alter the parameters	3.1%	-5.9%	-8.2%	-0.8%	-3.2%	-1.2%	5.4%	2.1%	~85%	-65.2%	-115%	-117%	-87.2%	-128%	-113%	-45.3%	-18.9%	Average % variation with respect to the vehicle (healthy animals; listed as V+(10)): -4.4%; inhibition in vivo at 50 mg/kg [2, 5]: ≥ 50%; change in vivo at 50 mg/kg [2, 14]: -73.9%; change in vivo at 50 mg/kg [2, 15]: -34.1%; change in vivo at 50 mg/kg [2, 16]: -103%; change in vivo at 50 mg/kg [2, 17]: -14.4%; change in vivo at 50 mg/kg [2, 18]: -84.6%; change in vivo at 50 mg/kg [2, 19]: -43.4%; change in vivo at 50 mg/kg [2, 20]: -32.6%; change in vivo at 50 mg/kg [2, 21]: 2.1%; change in vivo at 50 mg/kg [2, 22]: -86.2%; mean % effect relative to doxorubicin alone, all parameters (Vehicle) [2, 23]: -48.0%; Kp [3]: > 0.1
O=C1CC(c2ccccc2)CC(=O)C1C1COCCN1O (stereo not shown) [(5), 2-(4-hydroxymorpholin-3-yl)-5-phenylcyclohexane-1,3-dione]	2.71	6.44	did not significantly alter the parameters	5.0%	0.1%	-8.1%	-4.1%	-6.7%	-5.8%	1.8%	-3.7%	45 to 50%	-128%	-24.2%	-14.1%	-40.8%	-27.5%	-42.2%	-43.6%	3.5%	Average % variation with respect to the vehicle (healthy animals; listed as V+(5)): -3.2%; change in vivo at 50 mg/kg [2, 14]: -49.3%; change in vivo at 50 mg/kg [2, 15]: 7.6%; change in vivo at 50 mg/kg [2, 16]: -7.1%; change in vivo at 50 mg/kg [2, 17]: -21.6%; change in vivo at 50 mg/kg [2, 18]: -8.8%; change in vivo at 50 mg/kg [2, 19]: -12%; change in vivo at 50 mg/kg [2, 20]: -15.7%; change in vivo at 50 mg/kg [2, 21]: -4.2%; change in vivo at 50 mg/kg [2, 22]: -47.5%; Kp [3]: > 0.1
CC1(C)CC(=O)C(C2COCCN2O)C(=O)C1 (stereo not shown) [(4), 2-(4-hydroxymorpholin-3-yl)-5,5-dimethylcyclohexane-1,3-dione]	2.28	6.15	did not significantly alter the parameters	1.9%	-0.1%	-0.7%	-2.0%	-4.0%	-5.2%	-3.0%	-5.8%	~85%	-26.1%	-102%	-105%	-77.6%	-147%	-106%	19.2%	-68.5%	Average % variation with respect to the vehicle (healthy animals; listed as V+(4)): -2.1%; inhibition in vivo at 50 mg/kg [2, 5]: ≥ 50%; change in vivo at 50 mg/kg [2, 14]: -18.8%; change in vivo at 50 mg/kg [2, 15]: -94.7%; change in vivo at 50 mg/kg [2, 16]: -83.8%; change in vivo at 50 mg/kg [2, 17]: -34.4%; change in vivo at 50 mg/kg [2, 18]: -120%; change in vivo at 50 mg/kg [2, 19]: -80.7%; change in vivo at 50 mg/kg [2, 20]: -4.1%; change in vivo at 50 mg/kg [2, 21]: -28.7%; change in vivo at 50 mg/kg [2, 22]: -84.1%; mean % effect relative to doxorubicin alone, all parameters (Vehicle) [2, 23]: -58.1%; Kp [3]: > 0.1
